Reference: patent publication US20080287396A1, “Phosphonated Fluoroquinolones, Antibacterial Analogs Thereof, and Methods for the Prevention and Treatment of Bone and Joint Infections” (TARGANTA THERAPEUTICA INC., priority 2005, published 2008)
In brackets after ≈: the same amount, converted by molar mass.

How the values were obtained:
[1] = tested on: S. aureus strains ATCC13709 and RN4220; assay: microbe, parasite or virus in culture; type: cell-based; details: Staphylococcus aureus, read-out: minimum inhibitory concentration (MIC)
Protocol: (§1) Susceptibility of S. aureus strains ATCC13709 and RN4220 to the commercial antibiotics and synthesized compounds was determined by following the guidelines set by the Clinical and Laboratory Standards Institute (formerly the National Committee for Clinical Laboratory Standards) (M26-A). Compounds were diluted two-fold serially in DMSO and transferred to cation-adjusted Mueller Hinton broth (CAMHB; Becton Dickinson). 50 μL of compounds diluted in CAMHB was mixed with 100 μL of bacteria diluted in CAMHB in 96-well microtiter plates. The final number of micro-organisms in the assay was 5×10^5 c.f.u. per mL and the final concentration of DMSO in the assay was 1.25%. Assays were set up in duplicate and incubated at 37° C. for 18 h. The concentration of compound that inhibited visible growth was reported as the minimum inhibitory concentration (MIC).

[2] = tested on: S. aureus strains ATCC13709 and RN4220; assay: Susceptibility testing (MIC) in the presence of serum; type: cell-based; details: Staphylococcus aureus
Protocol: as §1
Susceptibility testing experiments were also carried out in the presence of serum. These experiments were carried out similar to the susceptibility testing with the following modifications. 75 μL of compounds diluted in CAMHB was mixed with 75 μL of bacteria diluted in 100% serum from any given source (commercial pooled mouse serum (MS) and human serum (HS), Equitech-Bio Inc.) or diluted in 8% purified human serum albumin (HSA) (Calbiochem). […]

Hela cells = assay: Cytotoxicity assay (MTS reduction); type: cell-based; details: concentrations up to 100 μM, 18 h, MTS reagent; data not shown
Protocol: Selected compounds were also tested for their ability to inhibit growth of mammalian cells so as to ascertain levels of cytotoxicity to the mammalian host, via an assay measuring the biological reduction of the inner salt of (3-(4,5-dimethylthiazol-2-yl)-5-(3-carboxymethoxyphenyl)-2-(4-sulfophenyl)-2H-tetrazolium (MTS reagent). Assays were performed in 96-well microtiter plates. Briefly, compounds at 100, 50, 25, and 12.5 μM concentrations were incubated with 2×10^4 Hela cells per well in Dulbecco's Modified Eagle Medium (Invitrogen Corporation) containing 1% Bovine Growth Serum (HyClone) for 18 h at 37° C. under 5% CO2.

[3] = Bone powder binding, LC/MS detection; details: 100 μM compound, Tris-HCl pH 7, 0.15M NaCl, ground rat tibia bone, 10 min
Protocol: The ability of the example molecules to bind to bone powder was established in two parallel fashions, using either LC/MS or fluorometric detection. For LC/MS detection, a stock solution (5 mM) of the compound to be tested was added to 0.1M Tris-HCl buffer pH 7, 0.15M NaCl to reach a final concentration of 100 μM. Triplicate samples (1 mL) of the compound solutions were intensively shaken for 10 min with or without 25 mg of fresh or 20 mg of vacuum dried ground rat tibia bone. The samples were then centrifuged for 15 min at 10 000 g. The presence of unbound compound was measured by injection of 30 μL of each of the supernatants into an Agilent 1100™ LC/UV system. For fluorometric detection, an individual compound was dissolved in PBS or water (compound 52) and resuspended at a concentration of 1 mg/ml in a slurry of bone meal powder (Now Foods, Bloomingdale, Ill., USA) in PBS at 10 mg/ml. The suspension of drug/prodrug in bone meal powder was incubated at 37° C. for 1 h to allow for binding, and centrifuged at 13 000 rpm for 2 min, before recovering the supernatant. The bone meal powder pellet was then washed three times with 1 ml of PBS. All supernatants were saved and assessed for fluoroquinolone content by fluorescence measurements at excitation/emission wavelengths of 280/465 nm. The amount of fluoroquinolone was determined from standard curves generated for each experiment. Amount of drug/prodrug bound to bone powder was deduced from the difference between the input amount (typically 1 mg) and the amount recovered in the supernatants after binding. In all binding experiments, >99% of input drug was recovered in the supernatant for the parent drugs.

[4] = Regeneration of drug from bone powder-bound prodrug; type: in vitro ADME; details: 7 days, medium not stated
Protocol: Amounts of drug “regenerated” from the phosphonated parent prodrug were measured as follows. Washed bone powder-bound prodrugs from the above section were resuspended in 400 μL PBS or in 400 μL 50% (v/v in PBS) human or rat serum. […] Methanol (5× volume relative to supernatant) was added to each supernatant and the mixture was vortexed on a floor model vortex for 15 min to extract freed fluoroquinolone. The mixture was then centrifuged at 10 000 rpm for 15 min to pellet the insoluble material. The supernatant containing the extracted fluoroquinolone was recovered and evaporated to dryness in a speed vac. The dried pellets were resuspended in PBS and the amount of fluoroquinolone was determined by fluorescence measurements as described above. The percentage of drug regenerated was deduced from the difference between amount of bound prodrug and the amount of regenerated drug. The identity of regenerated drug was deduced by MIC determination; MICs of regenerated material matched those of parent drugs but not those of prodrugs.

[5] = Bone powder binding, fluorometric detection; details: 1 mg/ml compound, bone meal powder 10 mg/ml in PBS, 37° C., 1 h
Method in brief: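 LC/MS method: 100 μM compound in 0.1 M Tris-HCl pH 7, 0.15 M NaCl shaken 10 min with or without ground rat tibia, centrifuged, unbound compound measured in supernatant. Fluorometric method: 1 mg/ml compound in 10 mg/ml bone meal/PBS, 1 h at 37 °C, pellet washed. Supernatant fluoroquinolone read at 280/465 nm; bound amount taken as input minus recovered.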

SMILES	MIC ([1]; ATCC13709, 18 h) [mg/L]	MIC ([2]; ATCC13709, read-out: MIC in the presence of 50% mouse serum in the medium) [mg/L]	cytotoxicity (Hela cells)	Binding to bone (%) LC/MS [3] [%]	MIC ([1]; ATCC13709, CAMHB, 37° C., 18 h, data not shown) [mg/L]	MIC ([2]; ATCC13709, in serum (kind not stated), read-out: MIC in serum) [mg/L]	drug released from the bone matter after 7 days of incubation, in words [4]	Binding to bone (%) Fluorescence [5] [%]
CCOP(=O)(OCC)C(CCCCOC(=O)c1cn(C2CC2)c2c(OC)c(N3C[C@@H]4CCCN[C@@H]4C3)c(F)cc2c1=O)P(=O)(OCC)OCC.O=C(O)C(F)(F)F [Compound 26, 5,5-bis(diethylphosphono)pentyl 7-((4aS,7aS)-octahydropyrrolo[3,4-b]pyridin-6-yl)-1-cyclopropyl-6-fluoro-1,4-dihydro-8-methoxy-4-oxoquinoline-3-carboxylate, trifluoroacetate salt]	32	0.5	no signs of any cytotoxicity					
COc1c(N2CCNC(C)C2)c(F)cc2c(=O)c(C(=O)OCCCCC(P(=O)(O)O)P(=O)(O)O)cn(C3CC3)c12 (stereo not shown) [Compound 28, 5,5-bisphosphonopentyl 7-(3-methylpiperazin-1-yl)-1-cyclopropyl-6-fluoro-1,4-dihydro-8-methoxy-4-oxoquinoline-3-carboxylate]			no signs of any cytotoxicity	91.9 ± 5.5				
COc1c(N2C[C@@H]3CCCN[C@@H]3C2)c(F)cc2c(=O)c(C(=O)OCCCCC(P(=O)(O)O)P(=O)(O)O)cn(C3CC3)c12 [Compound 25, 5,5-bisphosphonopentyl 7-((4aS,7aS)-octahydropyrrolo[3,4-b]pyridin-6-yl)-1-cyclopropyl-6-fluoro-1,4-dihydro-8-methoxy-4-oxoquinoline-3-carboxylate]				87.6 ± 11.5	32 (≈ 50.7 µM)	32	signs of drug release	92.7
